≈ marks a conversion by molar mass, not a printed value.
How the values were obtained:
S. suis 65 = assay: Antibiotic susceptibility of S. suis 65 (broth microdilution MIC); format: cell-based; conditions: Streptococcus suis; S. suis 65, THB, 96-well plates, 24 h at 37°C, growth recorded visually; three independent experiments
Description: The susceptibility of S. suis 65 to antibiotics (amoxicillin, ceftiofur, and penicillin G) was determined as follows. Briefly, a 24-h bacterial culture in THB was diluted in fresh broth medium to obtain an optical density at 660 nm (OD660) of 0.2. Equal volumes (100 μl) of bacteria and serial dilutions of antibiotics in THB were mixed in the wells of 96-well plates. Wells with no bacteria or no antibiotics were used as controls. Following a 24-h incubation at 37°C, bacterial growth was recorded visually. Minimal inhibitory concentration (MIC) values (μg/ml) were expressed as the lowest concentration at which no growth occurred. The MIC values were determined in three independent experiments.

S. suis LPH4 = assay: Resistance to antibiotics (MIC-based class); format: cell-based, Streptococcus suis; conditions: strain LPH4; resistant if MIC ≥ 400 μg/ml
Description: (§1) Table 1 Strains of S. suis used in this study, their characteristics and susceptibility to S. suis 65. | column: Resistance to antibiotics ^1 / Erythromycin; Resistance to antibiotics ^1 / Tetracycline

S. suis 1088563 = assay: Resistance to antibiotics (MIC-based class); format: cell-based, Streptococcus suis; conditions: strain 1088563; resistant if MIC ≥ 400 μg/ml
Description: as §1

S. suis MNCM06 = assay: Resistance to antibiotics (MIC-based class); format: cell-based, Streptococcus suis; conditions: strain MNCM06; resistant if MIC ≥ 400 μg/ml
Description: as §1

S. suis 31533 = assay: Resistance to antibiotics (MIC-based class); format: cell-based, Streptococcus suis; conditions: strain 31533; resistant if MIC ≥ 400 μg/ml
Description: as §1

S. suis P1/7 = assay: Resistance to antibiotics (MIC-based class); format: cell-based, Streptococcus suis; conditions: strain P1/7; resistant if MIC ≥ 400 μg/ml
Description: as §1

S. suis 1054471 = assay: Resistance to antibiotics (MIC-based class); format: cell-based, Streptococcus suis; conditions: strain 1054471; resistant if MIC ≥ 400 μg/ml
Description: as §1

S. suis MNCM01 = assay: Resistance to antibiotics (MIC-based class); format: cell-based, Streptococcus suis; conditions: strain MNCM01; resistant if MIC ≥ 400 μg/ml
Description: as §1

| SMILES | MIC (S. suis 65) [ng/mL] | Resistance to antibiotics (S. suis LPH4) | Resistance to antibiotics (S. suis 1088563) | Resistance to antibiotics (S. suis MNCM06) | Resistance to antibiotics (S. suis 31533) | Resistance to antibiotics (S. suis P1/7) | Resistance to antibiotics (S. suis 1054471) | Resistance to antibiotics (S. suis MNCM01) |
| --- | --- | --- | --- | --- | --- | --- | --- | --- |
| CN(C)[C@@H]1C(O)=C(C(N)=O)C(=O)[C@@]2(O)C(O)=C3C(=O)c4c(O)cccc4[C@@](C)(O)[C@H]3C[C@@H]12 [Tetracycline] |  | Resistant (A strain was considered resistant if the MIC was ≥ 400 μg/ml) | Resistant (A strain was considered resistant if the MIC was ≥ 400 μg/ml) | Resistant (A strain was considered resistant if the MIC was ≥ 400 μg/ml) | Sensitive (A strain was considered resistant if the MIC was ≥ 400 μg/ml) | Sensitive (A strain was considered resistant if the MIC was ≥ 400 μg/ml) | Resistant (A strain was considered resistant if the MIC was ≥ 400 μg/ml) | Resistant (A strain was considered resistant if the MIC was ≥ 400 μg/ml) |
| CC[C@H]1OC(=O)[C@H](C)[C@@H](O[C@H]2C[C@@](C)(OC)[C@@H](O)[C@H](C)O2)[C@H](C)[C@@H](O[C@@H]2O[C@H](C)C[C@H](N(C)C)[C@H]2O)[C@](C)(O)C[C@@H](C)C(=O)[C@H](C)[C@@H](O)[C@]1(C)O [Erythromycin] |  | Resistant (A strain was considered resistant if the MIC was ≥ 400 μg/ml) | Resistant (A strain was considered resistant if the MIC was ≥ 400 μg/ml) | Resistant (A strain was considered resistant if the MIC was ≥ 400 μg/ml) | Sensitive (A strain was considered resistant if the MIC was ≥ 400 μg/ml) | Sensitive (A strain was considered resistant if the MIC was ≥ 400 μg/ml) | Sensitive (A strain was considered resistant if the MIC was ≥ 400 μg/ml) | Resistant (A strain was considered resistant if the MIC was ≥ 400 μg/ml) |
| CC1(C)S[C@@H]2[C@H](NC(=O)[C@H](N)c3ccc(O)cc3)C(=O)N2[C@H]1C(=O)O [amoxicillin] | 4.9 (≈ 0.0134 µM) |  |  |  |  |  |  |  |

More lines, main results first:

| MIC (S. suis 65) [ng/mL] | SMILES | Resistance to antibiotics (S. suis LPH4) | Resistance to antibiotics (S. suis 1088563) | Resistance to antibiotics (S. suis MNCM06) | Resistance to antibiotics (S. suis 31533) | Resistance to antibiotics (S. suis P1/7) | Resistance to antibiotics (S. suis 1054471) | Resistance to antibiotics (S. suis MNCM01) |
| --- | --- | --- | --- | --- | --- | --- | --- | --- |
| 9.8 (≈ 0.0293 µM) | CC1(C)S[C@@H]2[C@H](NC(=O)Cc3ccccc3)C(=O)N2[C@H]1C(=O)O [penicillin G] |  |  |  |  |  |  |  |
| 9.8 (≈ 0.0187 µM) | CO/N=C(\C(=O)N[C@@H]1C(=O)N2C(C(=O)O)=C(CSC(=O)c3ccco3)CS[C@H]12)c1csc(N)n1 [ceftiofur] |  |  |  |  |  |  |  |
